Measurements published in US20110190399A1 (priority 2008, published 2011).

Experiments:
hemozoin synthesis = test: In vivo inhibition of hemozoin synthesis in P. yoelii infected mice; conditions: oral, 3 days, curcumin fed bound to chitosan nanoparticles
Procedure: Infected mice were divided into 4 groups (each having 4 mice), namely: • 1. Control group which was further sub-divided into the infected control group, olive oil control group and chitosan control group • 2. Infected and fed with Chloroquinine (1.7 mg in 100 μl of normal saline/mouse/day orally) • 3. […] Infected and fed with Chitosan nanoparticles (200 micrograms of chitosan/day) orally
Red blood cells were purified on the third day of treatment. […] The cells were centrifuged at 10,000 g for 10 min, supernatant was discarded and the pellet washed in 1 ml of 0.1 M alkaline bicarbonate buffer (pH 9.2).

[1] = Effect on fasting blood sugar levels in human volunteers; type: in vivo; conditions: 500 mg/day/person orally, 15 days
Source text: The results of the analysis are depicted in FIG. 11.

[2] = Effect on hemoglobin and RBC level of human volunteers; type: in vivo; conditions: 500 mg/day/person orally, 15 days
[3] = Effect on liver inflammation in human volunteers; type: in vivo; conditions: 500 mg/day/person orally, 15 days
Source text: Results of said tests are depicted in FIGS. 15.1-15.5.

[4] = Effect on kidney function in human volunteers; type: in vivo; conditions: 500 mg/day/person orally
[5] = Effect on globulin level, eosinophils, neutrophils and platelet count of human volunteers; type: in vivo; conditions: 500 mg/day/person orally, 15 days

Structure (SMILES) | hemozoin formation in vivo (hemozoin synthesis) | fasting glucose level [1] | blood hemoglobin and RBCs (anemic condition, RBC counts) [2] | ALP and Bilirubin levels [3] | adverse effect on liver function [3] | change in potassium level ([4]; human volunteers (7), 15 days) | change in serum creatinine and urea levels ([4]; human volunteers, 15 days) | serum creatinine, urea and potassium levels ([4]; human volunteers, before and after 15 days) | levels of eosinophiles, neutrophils and platelets [5]
CCN(CC)CCCC(C)Nc1ccnc2cc(Cl)ccc12 (stereo not shown) [chloroquine] | inhibited hemozoin formation in vivo |  |  |  |  |  |  |  | 
COc1cc(/C=C/C(=O)CC(=O)/C=C/c2ccc(O)c(OC)c2)ccc1O [curcumin, Curcumin] | inhibited hemozoin formation in vivo | not altered | no adverse effect | in the normal range except in one or two cases | do not have any adverse effect on liver function | increase | slight decrease | within the normal range | no significant effect
